Measurements: patent publication US20110152194A1, “CHIMERIC NATRIURETIC POLYPEPTIDES AND METHODS FOR INHIBITING CARDIAC REMODELING” (MAYO FOUNDATION FOR MEDICAL EDUCATION AND RESEARCH, priority 2008, published 2011)
Several values for one entry are separate records, joined by “and”; a condition that tells them apart may be missing. Equal entries are not always repeated. Where two headings read alike, the source gives them in different places.

Experiments:
normal anesthetized dogs = details: dog, in vivo
male mongrel dogs = assay: In vivo actions of CD-NP, CNP and CNP-C continuous i.v. infusion in anesthetized dogs; design: species or system dog; details: for ANG II, angiotensin II / Aldosterone / CO, cardiac output / DFRNa, distal fractional reabsorption of Na+ / GFR, glomerular filtration rate / MAP, mean arterial pressure / PAP, pulmonary arterial pressure / PCWP, pulmonary capillary wedge pressure / PFRNa, proximal fractional reabsorption of Na+ / PRA, plasma renin activity / PVR, pulmonary vascular resistance / RAP, right atrial pressure / RBF / RVR, renal vascular resistance / SVR, systemic vascular resistance: dogs, 75 min i.v. infusion of CD-NP 50 ng/kg/min or equimolar CNP
[1] = in vivo; cited from earlier work

B-type natriuretic peptide [BNP]
GFR (normal anesthetized dogs): lack of increase

GLSKGCFGLKLDRIGSMSGLGC [CNP]
ANG II, angiotensin II (male mongrel dogs; 30 min I): 7.5 ± 1.4 pg/mL
Aldosterone (male mongrel dogs; 30 min I): 21.1 ± 3.8 ng/dL
CO, cardiac output (male mongrel dogs; 30 min I): 3.3 ± 0.3 L/min
DFRNa, distal fractional reabsorption of Na+ (male mongrel dogs; 30 min I): 97 ± 0.4%
GFR, glomerular filtration rate (male mongrel dogs; 30 min I): 52.7 ± 6.7 mL/min
MAP, mean arterial pressure (male mongrel dogs; 30 min I): 127 ± 4 mmHg
PAP, pulmonary arterial pressure (male mongrel dogs; 30 min I): 12.8 ± 0.8 mmHg
PCWP, pulmonary capillary wedge pressure (male mongrel dogs; 30 min I): 4.6 ± 0.5 mmHg
PFRNa, proximal fractional reabsorption of Na+ (male mongrel dogs; 30 min I): 73 ± 2%
PRA, plasma renin activity (male mongrel dogs; 30 min I): 1.9 ± 0.6 ng/mL/h
PVR, pulmonary vascular resistance (male mongrel dogs; 30 min I): 1.9 ± 0.2 mmHgL^−1 · min
RAP, right atrial pressure (male mongrel dogs; 30 min I): 2.5 ± 0.3 mmHg
RBF (male mongrel dogs; 30 min I): 294.2 ± 30.8 mL/min
RVR, renal vascular resistance (male mongrel dogs; 30 min I): 0.47 ± 0.06 × 10^−3 mmHg · L^−1 · min
SVR, systemic vascular resistance (male mongrel dogs; 30 min I): 39.9 ± 2.7 mmHgL^−1 · min
ANG II, angiotensin II (male mongrel dogs; 60 min I): 10.4 ± 2.8 pg/mL
Aldosterone (male mongrel dogs; 60 min I): 21.4 ± 3.7 ng/dL
CO, cardiac output (male mongrel dogs; 60 min I): 2.8 ± 0.3 L/min
DFRNa, distal fractional reabsorption of Na+ (male mongrel dogs; 60 min I): 97 ± 0.9%
GFR, glomerular filtration rate (male mongrel dogs; 60 min I): 49.5 ± 4.2 mL/min
MAP, mean arterial pressure (male mongrel dogs; 60 min I): 128 ± 4 mmHg
PAP, pulmonary arterial pressure (male mongrel dogs; 60 min I): 13.2 ± 0.7 mmHg
PCWP, pulmonary capillary wedge pressure (male mongrel dogs; 60 min I): 5.6 ± 0.7 mmHg
PFRNa, proximal fractional reabsorption of Na+ (male mongrel dogs; 60 min I): 72 ± 1%
PRA, plasma renin activity (male mongrel dogs; 60 min I): 2.5 ± 0.7 ng/mL/h
PVR, pulmonary vascular resistance (male mongrel dogs; 60 min I): 2.1 ± 0.3 mmHgL^−1 · min
RAP, right atrial pressure (male mongrel dogs; 60 min I): 2.9 ± 0.3 mmHg
RBF (male mongrel dogs; 60 min I): 277.8 ± 29.2 mL/min
RVR, renal vascular resistance (male mongrel dogs; 60 min I): 0.49 ± 0.06 × 10^−3 mmHg · L^−1 · min
SVR, systemic vascular resistance (male mongrel dogs; 60 min I): 46.9 ± 2.7^† mmHgL^−1 · min
ANG II, angiotensin II (male mongrel dogs; Post-I): 14.4 ± 5.0 pg/mL
Aldosterone (male mongrel dogs; Post-I): 22.0 ± 4.2 ng/dL
CO, cardiac output (male mongrel dogs; Post-I): 2.6 ± 0.1 L/min
DFRNa, distal fractional reabsorption of Na+ (male mongrel dogs; Post-I): 97 ± 0.8%
GFR, glomerular filtration rate (male mongrel dogs; Post-I): 48.8 ± 5.6 mL/min
MAP, mean arterial pressure (male mongrel dogs; Post-I): 128 ± 4 mmHg
PAP, pulmonary arterial pressure (male mongrel dogs; Post-I): 13.9 ± 0.7 mmHg
PCWP, pulmonary capillary wedge pressure (male mongrel dogs; Post-I): 6.4 ± 0.8 mmHg
PFRNa, proximal fractional reabsorption of Na+ (male mongrel dogs; Post-I): 73 ± 2%
PRA, plasma renin activity (male mongrel dogs; Post-I): 3.2 ± 1.0 ng/mL/h
PVR, pulmonary vascular resistance (male mongrel dogs; Post-I): 2.2 ± 0.4 mmHgL^−1 · min
RAP, right atrial pressure (male mongrel dogs; Post-I): 3.5 ± 0.5 mmHg
RBF (male mongrel dogs; Post-I): 272.0 ± 24.5 mL/min
RVR, renal vascular resistance (male mongrel dogs; Post-I): 0.49 ± 0.06 × 10^−3 mmHg · L^−1 · min
SVR, systemic vascular resistance (male mongrel dogs; Post-I): 48.7 ± 2.5^† mmHgL^−1 · min
ANG II, angiotensin II (male mongrel dogs; Pre-I (pre-infusion)): 11.7 ± 4.7 pg/mL
Aldosterone (male mongrel dogs; Pre-I (pre-infusion)): 15.1 ± 4.2 ng/dL
CO, cardiac output (male mongrel dogs; Pre-I (pre-infusion)): 3.8 ± 0.3 L/min
DFRNa, distal fractional reabsorption of Na+ (male mongrel dogs; Pre-I (pre-infusion)): 98 ± 0.6%
GFR, glomerular filtration rate (male mongrel dogs; Pre-I (pre-infusion)): 52.2 ± 5.3 mL/min
MAP, mean arterial pressure (male mongrel dogs; Pre-I (pre-infusion)): 123 ± 4 mmHg
PAP, pulmonary arterial pressure (male mongrel dogs; Pre-I (pre-infusion)): 13.1 ± 0.8 mmHg
PCWP, pulmonary capillary wedge pressure (male mongrel dogs; Pre-I (pre-infusion)): 5.0 ± 0.5 mmHg
PFRNa, proximal fractional reabsorption of Na+ (male mongrel dogs; Pre-I (pre-infusion)): 80 ± 3%
PRA, plasma renin activity (male mongrel dogs; Pre-I (pre-infusion)): 2.9 ± 1.4 ng/mL/h
PVR, pulmonary vascular resistance (male mongrel dogs; Pre-I (pre-infusion)): 1.8 ± 0.2 mmHgL^−1 · min
RAP, right atrial pressure (male mongrel dogs; Pre-I (pre-infusion)): 2.6 ± 0.3 mmHg
RBF (male mongrel dogs; Pre-I (pre-infusion)): 273.4 ± 25.5 mL/min
RVR, renal vascular resistance (male mongrel dogs; Pre-I (pre-infusion)): 0.49 ± 0.07 × 10^−3 mmHg · L^−1 · min
SVR, systemic vascular resistance (male mongrel dogs; Pre-I (pre-infusion)): 33.8 ± 2.9 mmHgL^−1 · min
half-life [1]: about a minute and a half

GLSKGCFGLKLDRIGSMSGLGCGKSLG [CNP-C]
ANG II (male mongrel dogs; dog, in vivo, iv): did not result in any significant changes
GFR (male mongrel dogs; dog, in vivo, iv): did not result in any significant changes
PRA (male mongrel dogs; dog, in vivo, iv): did not result in any significant changes
Pulmonary capillary wedge pressure (male mongrel dogs; dog, in vivo, iv): 4.3±0.8 mmHg and 3.4±0.8 mmHg
diuresis (male mongrel dogs; dog, in vivo, iv): did not result in any significant changes
mean arterial pressure (male mongrel dogs; dog, in vivo, iv): 132±6 mmHg and 128±5 mmHg
natriuresis (male mongrel dogs; dog, in vivo, iv): did not result in any significant changes
plasma cGMP (male mongrel dogs; dog, in vivo, iv): did not result in any significant changes
urinary cGMP excretion (male mongrel dogs; dog, in vivo, iv): did not result in any significant changes

PSLRDPRPNAPSTSA [C-terminus]
DFRNa, distal fractional sodium reabsorption (normal anesthetized dogs): 98.7 ± 0.3%
GFR, glomerular filtration rate (normal anesthetized dogs): 34 ± 6 mL/min
PFRNa, proximal fractional sodium reabsorption (normal anesthetized dogs): 77.9 ± 2.7%
RBF, renal blood flow (normal anesthetized dogs): 213 ± 19 mL/min
UcGMPV, urinary cGMP excretion (normal anesthetized dogs): 1674 ± 213 pmol/min
DFRNa, distal fractional sodium reabsorption (normal anesthetized dogs; iv): 97.8 ± 0.5%
GFR, glomerular filtration rate (normal anesthetized dogs; iv): 44 ± 6 mL/min
PFRNa, proximal fractional sodium reabsorption (normal anesthetized dogs; iv): 71.0 ± 2.6 %
RBF, renal blood flow (normal anesthetized dogs; iv): 198 ± 27 mL/min
UcGMPV, urinary cGMP excretion (normal anesthetized dogs; iv): 2275 ± 231 pmol/min
natriuretic and diuretic action (urinary excretion of sodium, urine flow) (normal anesthetized dogs; iv): natriuretic and diuretic
